Patent US20260116910A1, “POLYCYCLIC COMPOUNDS AND METHODS THEREOF” (HEPAITECH (BEIJING) BIOPHARMA TECHNOLOGY CO., LTD., priority 2021, published 2026)
pEC50: −log10 of the molar value. Read-outs that look alike come from different tables or passages of the source.

How the values were obtained:
MRGPRX4 = MRGPRX4 (Homo sapiens, UniProt Q96LA9); test: MRGPRX4 activation, Fluo-8 Ca2+ FLIPR assay in HEK293T cells stably expressing MRGPRX4; format: cell-based; parameters: key to MRGPRX4 activation, Average / MRGPRX4 activation, Ave.: fluorescence change dF/F0; conditions: for EC50: MRGPRX4 activation, Ca2+ fluorescence, no activation in tested range reported as III, read-out: Activity (EC50 μM)
How it was run: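 Cells seeded overnight to >95% confluence, loaded 40-60 min at room temperature with 2 μM Fluo-8 AM, then kept in HHBS. Baseline read 30 s, compound added, signal followed 150 s more.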

human FXR (NR1H4) = molecular target: T1, human FXR (NR1H4) (Homo sapiens, UniProt Q96RI1); test: Human FXR (NR1H4) agonist assessment, FXRE-NanoLuc reporter in HEK293T cells; format: cell-based
T1 sequence (Q96RI1 1-476 isoform Q96RI1-1): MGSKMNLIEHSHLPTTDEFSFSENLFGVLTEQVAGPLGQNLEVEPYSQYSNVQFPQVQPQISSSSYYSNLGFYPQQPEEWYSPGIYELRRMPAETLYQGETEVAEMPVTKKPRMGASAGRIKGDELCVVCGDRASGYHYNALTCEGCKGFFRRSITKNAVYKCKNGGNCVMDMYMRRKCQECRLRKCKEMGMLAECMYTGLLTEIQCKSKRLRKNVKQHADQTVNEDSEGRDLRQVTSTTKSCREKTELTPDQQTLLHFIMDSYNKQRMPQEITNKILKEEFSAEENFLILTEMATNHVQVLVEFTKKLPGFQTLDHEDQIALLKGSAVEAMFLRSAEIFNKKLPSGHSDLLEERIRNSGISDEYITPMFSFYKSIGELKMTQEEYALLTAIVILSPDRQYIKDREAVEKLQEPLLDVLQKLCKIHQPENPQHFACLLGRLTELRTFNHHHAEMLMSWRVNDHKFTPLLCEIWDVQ
How it was run: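 HEK293T cells stably expressing human FXR with an FXRE-NanoLuc reporter were treated with compounds for 24 hr at 37 °C, with 0.01% DMSO as negative control. Medium was read for luminescence after 5 min with coelenterazine. EC50 was fitted by sigmoid to concentration-response data.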

[1] = FXR activation, HEK293T FXRE-NanoLuc reporter, 24 hr, read-out: EC50
[2] = FXR activation, HEK293T FXRE-NanoLuc reporter, 24 hr

MRGPRX4, sequence (Q96LA9 whole entry): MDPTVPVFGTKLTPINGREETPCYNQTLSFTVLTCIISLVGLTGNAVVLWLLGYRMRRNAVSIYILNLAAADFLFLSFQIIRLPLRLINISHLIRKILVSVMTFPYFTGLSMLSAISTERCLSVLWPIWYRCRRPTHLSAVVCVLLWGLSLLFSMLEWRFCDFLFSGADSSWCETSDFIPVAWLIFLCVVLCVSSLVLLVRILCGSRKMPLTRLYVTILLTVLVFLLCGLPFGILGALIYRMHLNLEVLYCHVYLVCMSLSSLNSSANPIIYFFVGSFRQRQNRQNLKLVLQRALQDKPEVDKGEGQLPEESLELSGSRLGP

SMILES	MRGPRX4 activation, Average (MRGPRX4; E3-9, Conc. (Log[M]) −4.0)	MRGPRX4 activation, Average (MRGPRX4; E3-9, Conc. (Log[M]) −4.5)	MRGPRX4 activation, Average (MRGPRX4; E3-9, Conc. (Log[M]) −5.0)	MRGPRX4 activation, Average (MRGPRX4; E3-9, Conc. (Log[M]) −5.4)	MRGPRX4 activation, Average (MRGPRX4; E3-9, Conc. (Log[M]) −5.9)	MRGPRX4 activation, Average (MRGPRX4; E3-9, Conc. (Log[M]) −6.4)	MRGPRX4 activation, Average (MRGPRX4; E3-9, Conc. (Log[M]) −6.9)	MRGPRX4 activation, Average (MRGPRX4; E3-9, Conc. (Log[M]) −7.3)	MRGPRX4 activation, Average (MRGPRX4; E3-9, Conc. (Log[M]) −7.8)	MRGPRX4 activation, Average (MRGPRX4; E3-9, Conc. (Log[M]) −8.3)	EC50 (MRGPRX4) [µM]	pEC50 (human FXR (NR1H4); [1])	Efficacy (maximum measured induction of NanoLuc, normalized to CDCA set as 100%) (human FXR (NR1H4); [2])	MRGPRX4 activation, fluorescence change (dF/F0), Average (MRGPRX4; Conc. (Log[M]) −4)	MRGPRX4 activation, fluorescence change (dF/F0), Average (MRGPRX4; Conc. (Log[M]) −4.5)	MRGPRX4 activation, fluorescence change (dF/F0), Average (MRGPRX4; Conc. (Log[M]) −5)	MRGPRX4 activation, fluorescence change (dF/F0), Average (MRGPRX4; Conc. (Log[M]) −5.5)	MRGPRX4 activation, fluorescence change (dF/F0), Average (MRGPRX4; Conc. (Log[M]) −6)	MRGPRX4 activation, fluorescence change (dF/F0), Average (MRGPRX4; Conc. (Log[M]) −7)	MRGPRX4 activation, fluorescence change (dF/F0), Average (MRGPRX4; Conc. (Log[M]) −8)	also measured
CC[C@H]1[C@@H](O)[C@@H]2[C@H](CC[C@]3(C)[C@@H]([C@H](C)CCNC(=O)C(=O)NS(=O)(=O)c4cccs4)CC[C@@H]23)[C@@]2(C)CCCC[C@@H]12 [8-2]	0.020	0.018	0.018	0.016	0.018	0.011	0.018	0.008	0.011	0.006	> 100	> 6.00									Efficacy (maximum measured induction of NanoLuc, normalized to CDCA set as 100%) (human FXR (NR1H4)): B (key: A: efficacy >400%; B: 300%<efficacy <=400%; C: 100%<efficacy <=300%; D: efficacy <=100%)
CC[C@H]1[C@@H](O)[C@@H]2[C@H](CC[C@]3(C)[C@@H]([C@H](C)CCN=C=S)CC[C@@H]23)[C@@]2(C)CCCC[C@@H]12 [7-1]	0.020	0.018	0.013	0.013	0.011	0.013	0.004	0.008	0.006	0.011			C (100%<efficacy <=300%)								pEC50 (MRGPRX4): < 4.00; pEC50 (human FXR (NR1H4)): < 5.00
C[C@H](CCCCC(=O)O)[C@H]1CC[C@H]2[C@@H]3CC[C@@H]4C[C@H](O)CC[C@]4(C)[C@H]3CC[C@]12C [compound 84]											< 50	5.00 to 6.00	B (300%<efficacy <=400%)	0.287	0.065	0.021	−0.001	0.009	−0.014	0.002	MRGPRX4 activation, fluorescence change (dF/F0), Average (MRGPRX4; Conc. (Log[M]) −9): −0.014
C[C@H](CCC(=O)O)[C@H]1CC[C@H]2[C@@H]3CC[C@@H]4C[C@@H](O)CC[C@]4(C)[C@H]3C[C@@H](O)[C@]12C [RC-6]												5.00 to 6.00	B (300%<efficacy <=400%)	0.259	0.208	0.145	0.009	−0.013	−0.007	−0.015	MRGPRX4 activation, fluorescence change (dF/F0), Average (MRGPRX4; Conc. (Log[M]) −9): −0.008
